# According to patent US9718835B2 (China Medical University Hospital, priority 2013, dated 2017):
# What was measured:
# [1] = tested on: DU-145 (hormone-insensitive prostate cancer); assay: Sulforhodamine B cytotoxicity assay, DU-145; type: cell-based, human; conditions: Table 1; 72 h; average ± SD
# Description: The 12 novel 1-derivatives 9a-l were evaluated for in vitro antiproliferative activity against four human tumor cell lines, KB (nasopharyngeal), A-549 (lung), DU-145 (prostate), and KBvin (MDR KB subline), by using a sulforhodamine B colorimetric assay with triplicate experiments.^30 Compounds 1 and 3 were used as controls.
# The human tumor cell lines used in this manuscript were A-549 (lung carcinoma), MDA-MB-231 (triple-negative breast cancer), DU-145 (hormone-insensitive prostate cancer), KB (originally isolated from epidermoid carcinoma of the nasopharynx), KBvin (vincristine-resistant KB subline), and HCT116 (colorectal adenocarcinoma). These cell lines were obtained from the Lineberger Comprehensive Cancer Center (UNC-CH) or from ATCC (Manassas, Va.), except KBvin, which was a generous gift of Professor Y.-C. Cheng (Yale University). All cell lines were maintained and assayed in RPMI-1640 medium containing 2 mM L-glutamine and 25 mM HEPES (HyClone), supplemented with 10% heat-inactivated fetal bovine serum (HyClone), 100 μg/mL streptomycin, 100 IU/mL penicillin, and 0.25 μg/mL amphotericin B (Cellgro) in a humidified atmosphere containing 5% CO2 in air. Compound stock solutions were prepared at 10 mM in DMSO and diluted with culture medium with the final DMSO concentration ≦0.01% (v/v), a concentration without effect on cell growth. The 4-6×10^3 cells/well were cultured for 72 h with various concentrations of test compounds in 96-well plate at 37° C. […] Each assay was performed in triplicate with duplicated samples.
# Topo I = target: T1, Topo I (Homo sapiens, UniProt P11387); assay: Western blot analysis of Topo I expression; type: cell-based; set-up: endogenous in cells; host or cells: A-549; conditions: after 8 h treatment
# T1 sequence (P11387 1-765): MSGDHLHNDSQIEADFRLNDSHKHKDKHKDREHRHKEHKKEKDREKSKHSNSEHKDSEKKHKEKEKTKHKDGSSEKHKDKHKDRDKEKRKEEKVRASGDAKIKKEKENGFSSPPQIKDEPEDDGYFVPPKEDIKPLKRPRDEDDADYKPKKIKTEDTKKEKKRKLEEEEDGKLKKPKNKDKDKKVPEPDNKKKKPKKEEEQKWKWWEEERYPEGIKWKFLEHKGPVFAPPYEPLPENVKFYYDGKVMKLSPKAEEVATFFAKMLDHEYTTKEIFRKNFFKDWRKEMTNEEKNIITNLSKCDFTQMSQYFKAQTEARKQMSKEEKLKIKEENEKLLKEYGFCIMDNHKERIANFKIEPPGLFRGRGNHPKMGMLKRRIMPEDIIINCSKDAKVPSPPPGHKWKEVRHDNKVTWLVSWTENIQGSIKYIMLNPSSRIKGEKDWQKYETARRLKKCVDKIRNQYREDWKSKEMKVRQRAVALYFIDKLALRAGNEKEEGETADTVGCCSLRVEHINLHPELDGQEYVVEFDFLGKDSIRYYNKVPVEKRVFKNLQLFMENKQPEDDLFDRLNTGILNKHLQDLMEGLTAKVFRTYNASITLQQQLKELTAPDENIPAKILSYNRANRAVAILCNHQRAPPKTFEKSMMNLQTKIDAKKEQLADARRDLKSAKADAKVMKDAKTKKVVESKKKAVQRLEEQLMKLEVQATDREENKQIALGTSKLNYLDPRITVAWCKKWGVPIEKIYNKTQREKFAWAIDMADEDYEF
# Excerpt: First, we determined the effect of 9a on cell cycle distribution using flow cytometry analysis. […] Because it has been shown that 1-Topo I-DNA covalent complexes enhance the transcription-dependent degradation of Topo I via a 26S proteasome pathway,^32 the effects of 9a on the expression levels of Topo I and Topo II were investigated. […] Compound 9a acts directly on Topo I and results in the accumulation of covalent Topo I-DNA complexes followed by proteasomal Topo I degradation, which is the same effect as 1 and contributes to 9a's cytotoxicity.
# Cells were harvested in PBS containing proteinase inhibitors and phosphatase inhibitors, and sonicated. Whole cell lysates were separated by SDS-PAGE and transferred to Immobilon P membrane (EMD Millipore). The membrane was incubated with primary antibody followed by labeling with horseradish peroxidase (HRP)-conjugated secondary antibody (EMD Millipore). Chemilluminence substrate kit (EMD Millipore) was used for detection of membrane-bound HRP, and visualized by the Luminsence image analyzer, LAS4000 (Fuji Photo Film Co., Japan).
# Antibodies to caspase-3, caspase-8, caspase-9, PARP, phospho-ATM (Ser1981), ATM, phospho-ATR (Ser428), phospho-Chk1 (Ser345), phospho-Chk2 (Thr68), Chk2, phospho-H2AX (Ser139), and phospho-p53 (Ser15) were purchased from Cell Signaling Technology. […]
# [2] = target: T2, recombinant human Topoisomerase I (Homo sapiens, UniProt P11387); assay: Topoisomerase I activity assay in a cell-free system; type: biochemical; conditions: purified recombinant human Topo I
# T2 construct: purchased TopoGEN
# T2 sequence (P11387 1-765): T1 sequence (P11387 1-765)
# Description: Inhibition of Topo I activity by 9a in a cell-free system. A 1-delivative with an esterified 20-hydroxy group is expected to be activated by digestion with carboxylesterases. […] We authenticated the inhibitory effect of 9a against Topo I in a dose-dependent manner Thus, we confirmed that 9a is a new class of Topo I inhibitor.
# One unit of recombinant human Topoisomerase I enzyme (TopoGEN) was pre-incubated for 20 min at 37° C. with vehicle, 9a, 1, 3, or SN-38 in a final volume of 20 μL reaction buffer (10 mM Tris-HCl, pH 7.9, 1 mM EDTA, 150 mM NaCl, 0.1% BSA, 0.1 mM spermidine, 5% glycerol) was then incubated with 250 ng of supercoiled plasmid DNA for 20 min. The supercoiled, relaxed, or nicked DNA was separated by 1% agarose gel in 1×TAE (Tris-Acetate-EDTA) buffer. Ethidium bromide stained agarose gel was photographed using Gel Doc XR (Bio-Rad).
# SKOV3 (Ovary cancer) = assay: cells; type: cell-based, human; conditions: Table 6; read-out: In vitro cytotoxicity SKOV3 (Ovary cancer)
smiles,measurement,setting,value
CC[C@@]1(OC(=O)CNC(Cc2ccc(OC)cc2)=NS(=O)(=O)c2ccc(C)cc2)C(=O)OCc2c1cc1n(c2=O)Cc2cc3ccccc3nc2-1 [Compound 9a],IC50,[1],50 ± 3.8 nM
same,protein levels of Topo I,Topo I,significantly inhibited protein levels of Topo I
same,Inhibition of Topo I activity (relaxation/nicking of supercoiled plasmid DNA),[2],inhibited Topo I activity
same,IC50,SKOV3 (Ovary cancer),17.1 ± 2.27 nM
